# Measurements taken from patent US20250361233A1, “Compounds For Activating Serotonin Receptor” (PSYLO PTY LTD, priority 2023, published 2025).
# Molecular target: T1, 5-HT2A receptor (Homo sapiens, UniProt P28223)
# T1 construct: host or cells: HEK293
# Experiment: FLIPR Ca2+ flux functional assay, agonist activity at 5-HT2A
# Format: cell-based
# Details: stably transfected HEK293 cells
# Experimental: (§1) Functional assays 5-HT2A, 5-HT2B and 5-HT2C Receptors
# (§2) Activity at 5-HT2A, 5-HT2B and 5-HT2C receptors was determined using a FLIPR Ca2+ flux assay at WuXi AppTec Co. Ltd. (Hong Kong) Discovery Biology Unit according to their standard protocols. Briefly, stably transfected cells expressing the receptor of interest (HEK293 for 5-HT2A and 5-HT2C; CHO-K1 for 5-HT2B) were grown and plated in a 384 well plate and incubated at 37° C. and 5% CO2 overnight. A 250 mM stock solution of probenecid in FLIPR calcium assay buffer (10 mL) was freshly prepared and combined with a fluorescent dye (Fluo-4 Direct) to give a final assay concentration of 2.5 mM. Reference compounds were 4-fold serially diluted and the screening compounds were 3-fold serially diluted in 100% DMSO for 10 points using Agilent Bravo, and 750 nL was added to a 384 well compound plate using Echo along with 30 μL assay buffer. The fluorescent dye was then added to the assay plate along with assay buffer to a final volume of 40 μL. The cell plate was incubated for 50 min at 37° C. and 5% CO2 and placed into the FLIPR Tetra along with the compound plate. 10 μL of references and compounds were then transferred from the compound plate into the cell plate and the fluorescent signal was read.
# T1 sequence (P28223 whole entry): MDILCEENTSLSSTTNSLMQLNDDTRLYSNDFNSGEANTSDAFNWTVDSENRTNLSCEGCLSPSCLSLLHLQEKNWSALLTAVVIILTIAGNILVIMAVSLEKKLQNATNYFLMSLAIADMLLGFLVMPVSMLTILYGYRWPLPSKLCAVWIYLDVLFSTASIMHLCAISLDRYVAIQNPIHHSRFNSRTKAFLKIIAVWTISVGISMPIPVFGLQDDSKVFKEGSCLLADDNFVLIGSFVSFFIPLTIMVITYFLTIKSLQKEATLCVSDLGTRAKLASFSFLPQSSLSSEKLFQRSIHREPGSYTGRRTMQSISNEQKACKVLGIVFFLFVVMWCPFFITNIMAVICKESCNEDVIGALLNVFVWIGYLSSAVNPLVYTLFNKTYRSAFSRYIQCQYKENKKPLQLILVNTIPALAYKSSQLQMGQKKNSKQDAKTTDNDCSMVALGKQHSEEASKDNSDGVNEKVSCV
Compound,EC50 [nM],Emax [%]
"CC(C)N(C)CCc1c[nH]c2ncc(Cl)cc12 [Compound S53, N-(2-(5-chloro-1H-pyrrolo[2,3-b]pyridin-3-yl)ethyl)-N-methylpropan-2-amine]",115,84
"CN(CCc1c[nH]c2ncc(F)cc12)C1CC1 [Compound S1, N-(2-(5-fluoro-1H-pyrrolo[2,3-b]pyridin-3-yl)ethyl)-N-methylcyclopropanamine]",33.7,82
"CN(CCc1c[nH]c2ncc(Cl)cc12)C1CC1 [Compound S42, N-(2-(5-chloro-1H-pyrrolo[2,3-b]pyridin-3-yl)ethyl)-N-methylcyclopropanamine]",143,58
"COc1cnc2[nH]cc(CCN(C)C3CC3)c2c1 [Compound S44, N-(2-(5-methoxy-1H-pyrrolo[2,3-b]pyridin-3-yl)ethyl)-N-methylcyclopropanamine]",9.49,82
"Brc1cnc2[nH]cc(CCN3CCCC3)c2c1 [Compound S57, 5-bromo-3-(2-(pyrrolidin-1-yl)ethyl)-1H-pyrrolo[2,3-b]pyridine]",897,86
"CCN(C)CCc1c[nH]c2ncc(C#N)cc12 [Compound S66, 3-(2-(ethyl(methyl)amino)ethyl)-1H-pyrrolo[2,3-b]pyridine-5-carbonitrile]",1170,65
"COc1cnc2[nH]cc(CCN3CCCCC3)c2c1 [Compound S47, 5-methoxy-3-(2-(piperidin-1-yl)ethyl)-1H-pyrrolo[2,3-b]pyridine]",673,65
"CC(C)N(C)CCc1c[nH]c2ncc(C#N)cc12 [Compound S67, 3-(2-(isopropyl(methyl)amino)ethyl)-1H-pyrrolo[2,3-b]pyridine-5-carbonitrile]",609,80
"CCN(C)CCc1c[nH]c2ncc(Br)cc12 [Compound S54, 2-(5-bromo-1H-pyrrolo[2,3-b]pyridin-3-yl)-N-ethyl-N-methylethan-1-amine]",223,69
"Brc1cnc2[nH]cc(CCN3CCC3)c2c1 [Compound S58, 3-(2-(azetidin-1-yl)ethyl)-5-bromo-1H-pyrrolo[2,3-b]pyridine]",124,79
"N#Cc1cnc2[nH]cc(CCN3CCCC3)c2c1 [Compound S69, 3-(2-(pyrrolidin-1-yl)ethyl)-1H-pyrrolo[2,3-b]pyridine-5-carbonitrile]",1470,86
"CN(CCc1c[nH]c2ncc(OC(F)(F)F)cc12)C1CC1 [Compound S41, N-methyl-N-(2-(5-(trifluoromethoxy)-1H-pyrrolo[2,3-b]pyridin-3-yl)ethyl)cyclopropanamine]",822,41
"C[C@H]1CCCN1CCc1c[nH]c2ncc(F)cc12 [Compound S51, (S)-5-fluoro-3-(2-(2-methylpyrrolidin-1-yl)ethyl)-1H-pyrrolo[2,3-b]pyridine]",394,86
"CN(CCc1c[nH]c2ncc(Br)cc12)C1CC1 [Compound S56, N-(2-(5-bromo-1H-pyrrolo[2,3-b]pyridin-3-yl)ethyl)-N-methylcyclopropanamine]",226,54
"N#Cc1cnc2[nH]cc(CCNCc3cccc(F)c3)c2c1 [Compound S73, 3-(2-((3-fluorobenzyl)amino)ethyl)-1H-pyrrolo[2,3-b]pyridine-5-carbonitrile]",134,66
"C[C@H]1CCN1CCc1c[nH]c2ncc(F)cc12 [Compound S48, (S)-5-fluoro-3-(2-(2-methylazetidin-1-yl)ethyl)-1H-pyrrolo[2,3-b]pyridine]",115,82
"COc1ccccc1CNCCc1c[nH]c2ncc(Br)cc12 [Compound S62, 2-(5-bromo-1H-pyrrolo[2,3-b]pyridin-3-yl)-N-(2-methoxybenzyl)ethan-1-amine]",7.86,78
"COc1cnc2[nH]cc(CCN3CCCC3)c2c1 [Compound S46, 5-methoxy-3-(2-(pyrrolidin-1-yl)ethyl)-1H-pyrrolo[2,3-b]pyridine]",47,91
"Fc1cccc(CNCCc2c[nH]c3ncc(Br)cc23)c1 [Compound S61, 2-(5-bromo-1H-pyrrolo[2,3-b]pyridin-3-yl)-N-(3-fluorobenzyl)ethan-1-amine]",74.7,65
"Fc1ccccc1CNCCc1c[nH]c2ncc(Br)cc12 [Compound S60, 2-(5-bromo-1H-pyrrolo[2,3-b]pyridin-3-yl)-N-(2-fluorobenzyl)ethan-1-amine]",285,66

# Molecular target: T2, 5-HT2C receptor (Homo sapiens, UniProt P28335)
# T2 construct: host or cells: HEK293
# T2 sequence (P28335 33-458): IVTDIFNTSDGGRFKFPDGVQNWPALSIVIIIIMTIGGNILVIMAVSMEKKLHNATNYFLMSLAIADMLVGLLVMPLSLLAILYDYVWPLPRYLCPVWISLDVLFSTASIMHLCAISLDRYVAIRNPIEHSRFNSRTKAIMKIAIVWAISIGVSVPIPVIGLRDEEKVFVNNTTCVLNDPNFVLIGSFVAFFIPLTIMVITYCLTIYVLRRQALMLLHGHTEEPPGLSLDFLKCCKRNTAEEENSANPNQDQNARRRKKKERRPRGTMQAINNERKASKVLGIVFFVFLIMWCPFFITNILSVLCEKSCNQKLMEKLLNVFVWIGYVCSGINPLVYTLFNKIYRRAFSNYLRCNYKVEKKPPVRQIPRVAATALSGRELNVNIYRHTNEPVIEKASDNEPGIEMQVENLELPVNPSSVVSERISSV
# Experiment: FLIPR Ca2+ flux functional assay, agonist activity at 5-HT2C
# Format: cell-based
# Details: stably transfected HEK293 cells
# Experimental: as §1, §2
Compound,EC50 [nM],Emax [%]
"CC(C)N(C)CCc1c[nH]c2ncc(Cl)cc12 [Compound S53, N-(2-(5-chloro-1H-pyrrolo[2,3-b]pyridin-3-yl)ethyl)-N-methylpropan-2-amine]",2580,71
"CN(CCc1c[nH]c2ncc(F)cc12)C1CC1 [Compound S1, N-(2-(5-fluoro-1H-pyrrolo[2,3-b]pyridin-3-yl)ethyl)-N-methylcyclopropanamine]",1440,77
"CN(CCc1c[nH]c2ncc(Cl)cc12)C1CC1 [Compound S42, N-(2-(5-chloro-1H-pyrrolo[2,3-b]pyridin-3-yl)ethyl)-N-methylcyclopropanamine]",1100,75
"COc1cnc2[nH]cc(CCN(C)C3CC3)c2c1 [Compound S44, N-(2-(5-methoxy-1H-pyrrolo[2,3-b]pyridin-3-yl)ethyl)-N-methylcyclopropanamine]",2830,45
"Brc1cnc2[nH]cc(CCN3CCCC3)c2c1 [Compound S57, 5-bromo-3-(2-(pyrrolidin-1-yl)ethyl)-1H-pyrrolo[2,3-b]pyridine]",3480,62
"CCN(C)CCc1c[nH]c2ncc(C#N)cc12 [Compound S66, 3-(2-(ethyl(methyl)amino)ethyl)-1H-pyrrolo[2,3-b]pyridine-5-carbonitrile]",> 10000,1
"COc1cnc2[nH]cc(CCN3CCCCC3)c2c1 [Compound S47, 5-methoxy-3-(2-(piperidin-1-yl)ethyl)-1H-pyrrolo[2,3-b]pyridine]",> 10000,8
"CC(C)N(C)CCc1c[nH]c2ncc(C#N)cc12 [Compound S67, 3-(2-(isopropyl(methyl)amino)ethyl)-1H-pyrrolo[2,3-b]pyridine-5-carbonitrile]",> 10000,2
"CCN(C)CCc1c[nH]c2ncc(Br)cc12 [Compound S54, 2-(5-bromo-1H-pyrrolo[2,3-b]pyridin-3-yl)-N-ethyl-N-methylethan-1-amine]",> 10000,19
"Brc1cnc2[nH]cc(CCN3CCC3)c2c1 [Compound S58, 3-(2-(azetidin-1-yl)ethyl)-5-bromo-1H-pyrrolo[2,3-b]pyridine]",231,67
"N#Cc1cnc2[nH]cc(CCN3CCCC3)c2c1 [Compound S69, 3-(2-(pyrrolidin-1-yl)ethyl)-1H-pyrrolo[2,3-b]pyridine-5-carbonitrile]",> 10000,0
"CN(CCc1c[nH]c2ncc(OC(F)(F)F)cc12)C1CC1 [Compound S41, N-methyl-N-(2-(5-(trifluoromethoxy)-1H-pyrrolo[2,3-b]pyridin-3-yl)ethyl)cyclopropanamine]",> 10000,0
"C[C@H]1CCCN1CCc1c[nH]c2ncc(F)cc12 [Compound S51, (S)-5-fluoro-3-(2-(2-methylpyrrolidin-1-yl)ethyl)-1H-pyrrolo[2,3-b]pyridine]",> 10000,2
"CN(CCc1c[nH]c2ncc(Br)cc12)C1CC1 [Compound S56, N-(2-(5-bromo-1H-pyrrolo[2,3-b]pyridin-3-yl)ethyl)-N-methylcyclopropanamine]",1850,45
"N#Cc1cnc2[nH]cc(CCNCc3cccc(F)c3)c2c1 [Compound S73, 3-(2-((3-fluorobenzyl)amino)ethyl)-1H-pyrrolo[2,3-b]pyridine-5-carbonitrile]",7430,43
"C[C@H]1CCN1CCc1c[nH]c2ncc(F)cc12 [Compound S48, (S)-5-fluoro-3-(2-(2-methylazetidin-1-yl)ethyl)-1H-pyrrolo[2,3-b]pyridine]",3960,44
"COc1ccccc1CNCCc1c[nH]c2ncc(Br)cc12 [Compound S62, 2-(5-bromo-1H-pyrrolo[2,3-b]pyridin-3-yl)-N-(2-methoxybenzyl)ethan-1-amine]",480,85
"COc1cnc2[nH]cc(CCN3CCCC3)c2c1 [Compound S46, 5-methoxy-3-(2-(pyrrolidin-1-yl)ethyl)-1H-pyrrolo[2,3-b]pyridine]",4170,43
"Fc1cccc(CNCCc2c[nH]c3ncc(Br)cc23)c1 [Compound S61, 2-(5-bromo-1H-pyrrolo[2,3-b]pyridin-3-yl)-N-(3-fluorobenzyl)ethan-1-amine]",1920,73
"Fc1ccccc1CNCCc1c[nH]c2ncc(Br)cc12 [Compound S60, 2-(5-bromo-1H-pyrrolo[2,3-b]pyridin-3-yl)-N-(2-fluorobenzyl)ethan-1-amine]",1790,63

# Molecular target: T3, 5-HT2B receptor (Homo sapiens, UniProt P41595)
# T3 construct: host or cells: CHO-K1
# T3 sequence (P41595 whole entry): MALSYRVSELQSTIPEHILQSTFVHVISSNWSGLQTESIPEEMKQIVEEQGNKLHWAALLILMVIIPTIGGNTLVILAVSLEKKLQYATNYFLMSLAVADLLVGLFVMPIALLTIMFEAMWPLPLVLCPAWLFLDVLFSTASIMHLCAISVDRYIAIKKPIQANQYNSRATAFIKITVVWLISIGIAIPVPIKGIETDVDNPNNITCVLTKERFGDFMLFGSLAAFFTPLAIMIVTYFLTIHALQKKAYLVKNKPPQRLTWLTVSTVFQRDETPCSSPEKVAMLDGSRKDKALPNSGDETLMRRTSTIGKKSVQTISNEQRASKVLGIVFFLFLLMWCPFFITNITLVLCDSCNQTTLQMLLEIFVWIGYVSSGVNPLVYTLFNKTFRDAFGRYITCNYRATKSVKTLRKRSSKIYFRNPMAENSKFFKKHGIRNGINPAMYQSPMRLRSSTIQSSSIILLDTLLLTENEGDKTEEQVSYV
# Experiment: 5-HT2B activation in a similar assay at a single 10 μM concentration
# Format: cell-based
# Details: not given
# Experimental: Activation data are provided in a similar assay tested at a single 10 μM concentration.
row,Compound,5-HT2B % Activation @ 10 μM [%]
1,"CC(C)N(C)CCc1c[nH]c2ncc(Cl)cc12 [Compound S53, N-(2-(5-chloro-1H-pyrrolo[2,3-b]pyridin-3-yl)ethyl)-N-methylpropan-2-amine]",26
2,"CN(CCc1c[nH]c2ncc(F)cc12)C1CC1 [Compound S1, N-(2-(5-fluoro-1H-pyrrolo[2,3-b]pyridin-3-yl)ethyl)-N-methylcyclopropanamine]",2
3,"CN(CCc1c[nH]c2ncc(Cl)cc12)C1CC1 [Compound S42, N-(2-(5-chloro-1H-pyrrolo[2,3-b]pyridin-3-yl)ethyl)-N-methylcyclopropanamine]",15
4,"COc1cnc2[nH]cc(CCN(C)C3CC3)c2c1 [Compound S44, N-(2-(5-methoxy-1H-pyrrolo[2,3-b]pyridin-3-yl)ethyl)-N-methylcyclopropanamine]",1
5,"Brc1cnc2[nH]cc(CCN3CCCC3)c2c1 [Compound S57, 5-bromo-3-(2-(pyrrolidin-1-yl)ethyl)-1H-pyrrolo[2,3-b]pyridine]",12
6,"CCN(C)CCc1c[nH]c2ncc(C#N)cc12 [Compound S66, 3-(2-(ethyl(methyl)amino)ethyl)-1H-pyrrolo[2,3-b]pyridine-5-carbonitrile]",0
7,"COc1cnc2[nH]cc(CCN3CCCCC3)c2c1 [Compound S47, 5-methoxy-3-(2-(piperidin-1-yl)ethyl)-1H-pyrrolo[2,3-b]pyridine]",0
8,"CC(C)N(C)CCc1c[nH]c2ncc(C#N)cc12 [Compound S67, 3-(2-(isopropyl(methyl)amino)ethyl)-1H-pyrrolo[2,3-b]pyridine-5-carbonitrile]",4
9,"CCN(C)CCc1c[nH]c2ncc(Br)cc12 [Compound S54, 2-(5-bromo-1H-pyrrolo[2,3-b]pyridin-3-yl)-N-ethyl-N-methylethan-1-amine]",1
10,"Brc1cnc2[nH]cc(CCN3CCC3)c2c1 [Compound S58, 3-(2-(azetidin-1-yl)ethyl)-5-bromo-1H-pyrrolo[2,3-b]pyridine]",3
11,"N#Cc1cnc2[nH]cc(CCN3CCCC3)c2c1 [Compound S69, 3-(2-(pyrrolidin-1-yl)ethyl)-1H-pyrrolo[2,3-b]pyridine-5-carbonitrile]",0
12,"CN(CCc1c[nH]c2ncc(OC(F)(F)F)cc12)C1CC1 [Compound S41, N-methyl-N-(2-(5-(trifluoromethoxy)-1H-pyrrolo[2,3-b]pyridin-3-yl)ethyl)cyclopropanamine]",0
13,"C[C@H]1CCCN1CCc1c[nH]c2ncc(F)cc12 [Compound S51, (S)-5-fluoro-3-(2-(2-methylpyrrolidin-1-yl)ethyl)-1H-pyrrolo[2,3-b]pyridine]",0
14,"CN(CCc1c[nH]c2ncc(Br)cc12)C1CC1 [Compound S56, N-(2-(5-bromo-1H-pyrrolo[2,3-b]pyridin-3-yl)ethyl)-N-methylcyclopropanamine]",2
15,"N#Cc1cnc2[nH]cc(CCNCc3cccc(F)c3)c2c1 [Compound S73, 3-(2-((3-fluorobenzyl)amino)ethyl)-1H-pyrrolo[2,3-b]pyridine-5-carbonitrile]",2
16,"C[C@H]1CCN1CCc1c[nH]c2ncc(F)cc12 [Compound S48, (S)-5-fluoro-3-(2-(2-methylazetidin-1-yl)ethyl)-1H-pyrrolo[2,3-b]pyridine]",2
17,"COc1ccccc1CNCCc1c[nH]c2ncc(Br)cc12 [Compound S62, 2-(5-bromo-1H-pyrrolo[2,3-b]pyridin-3-yl)-N-(2-methoxybenzyl)ethan-1-amine]",1
18,"COc1cnc2[nH]cc(CCN3CCCC3)c2c1 [Compound S46, 5-methoxy-3-(2-(pyrrolidin-1-yl)ethyl)-1H-pyrrolo[2,3-b]pyridine]",3
19,"Fc1cccc(CNCCc2c[nH]c3ncc(Br)cc23)c1 [Compound S61, 2-(5-bromo-1H-pyrrolo[2,3-b]pyridin-3-yl)-N-(3-fluorobenzyl)ethan-1-amine]",0
20,"Fc1ccccc1CNCCc1c[nH]c2ncc(Br)cc12 [Compound S60, 2-(5-bromo-1H-pyrrolo[2,3-b]pyridin-3-yl)-N-(2-fluorobenzyl)ethan-1-amine]",0
